Test results from US7250400B2, “Peptides and derivatives thereof showing cell attachment, spreading and detachment activity” (Regen Biotech, Inc., priority 2002, dated 2007).
“Also recorded” adds a separate entry of the source.

How the values were obtained:
Type in all cases: cell-based
HCE cells [1] = assay: Cell adhesion of HCE cells to surfaces coated with synthetic peptides; details: plates coated with peptide at 0-120 μM, HCE cells 37° C. 1 hour, FIG. 9a
Description: (§1) The recombinant βig-h3 fas-1 domain proteins prepared above were assayed for cell attachment activity. First, the recombinant βig-h3 proteins were let to adhere to the bottoms of 96-well microculture plates (Falcon) by incubation at 37° C. for 1 hour and blocked with PBS containing 0.2% BSA. HCE cells were suspended in culture media at a density of 2×10^5 cells/ml. 0.1 ml of the cell suspension was added to each well of the plates coated with the recombinant proteins. Following incubation at 37° C. for 1 hour, unattached cells were removed by washing with PBS. Attached cells were incubated for 1 hour at 37° C. in 50 mM citrate buffer, pH 5.0, containing 3.75 mM p-nitrophenol-N-acetyl 1-β-D-glycosaminide as a hexosaminidase substrate and 0.25% Triton X-100, followed by the addition of 50 mM glycine buffer, pH 10.4, containing 5 mM EDTA to block the enzyme activity. A measurement was made of absorbance at 405 nm in a Multiskan MCC/340 microplate reader.
An experiment was carried out to determine whether each of the synthetic peptides is able to mediate cell adhesion. Well plates were coated with each peptide at concentrations of 0, 20, 40, 60, 80, 100 and 120 μM and then incubated with HCE cells at 37° C. for 1 hour. The attached cells were quantitatively analyzed with hexosaminidase as in Example 1-2.

HCE cells [2] = assay: Effect of synthetic peptides on βig-h3-mediated HCE cell adhesion; details: 100 μM peptide; for cell detachment activity: HCE cell adhesion to βig-h3, FIG. 8a; for inhibition of HCE cell adhesion to βig-h3: preincubation 30 min, dishes coated with 10 μg/ml βig-h3, FIG. 8a
Description: as §1
Effect of the peptides containing conserved sequences of fas-1 domains of βig-h3 on βig-h3-mediated cell adhesion was examined with HCE cells. Cells were preincubated for 30 min in media containing 100 μM of each of the four synthetic peptides or no peptides and transferred to plastic culture dishes coated with 10 μg/ml BSA or 10 μg/ml βig-h3. The attached cells were subjected to quantitative hexosaminidase analysis as in Example 1-2.

HCE cells [3] = assay: Effect of synthetic peptides on HCE cell adhesion to various extracellular matrix proteins; details: 100 μM peptide; for inhibition of cell adhesion to fibronectin: plates coated with fibronectin; for inhibition of cell adhesion to fibronectin / inhibition of cell adhesion to laminin / inhibition of cell adhesion to type I collagen / inhibition of cell adhesion to type II collagen / inhibition of cell adhesion to vitronectin: FIG. 10a; for inhibition of cell adhesion to laminin: plates coated with laminin; for inhibition of cell adhesion to type I collagen: plates coated with type I collagen; for inhibition of cell adhesion to type II collagen: plates coated with type II collagen; for inhibition of cell adhesion to vitronectin: plates coated with vitronectin; for inhibition of cell adhesion to βig-h3: plates coated with βig-h3, FIG. 10a
Description: as §1
To determine whether the inhibitory activity of synthetic peptides EPDIM (SEQ ID NO:3 and NKDIL (SEQ ID NO:2) against cell adhesion is specific to βig-h3, effects of the synthetic peptides on cell adhesion to various matrix proteins were examined. HCE cells were preincubated in media added with 100 μM of the synthetic peptide EPDIM (SEQ ID NO:3) or NKDIL (SEQ ID NO:2) or none of them and then applied to plates coated with various matrix proteins, including βig-h3, fibronectin, laminin, vitronectin, type I and type II collagen. After 1 hour of incubation, the attached cells were quantitatively analyzed with hexosaminidase as in Example 1-2.

α3β1 integrin = assay: Function-blocking anti-integrin antibodies on HCE cell adhesion to plates coated with EPDIM or NKDIL; details: plates coated with 100 μM peptide, antibodies 5 μg/ml, FIG. 9b
Description: Function-blocking experiments using monoclonal antibodies against various integrin subunits were carried out to examine whether α3β1 integrin, known as a surface receptor of βig-h3, would be involved in the cell adhesion mediated by the synthetic peptides EPDIM (SEQ ID NO:3) and NKDIL (SEQ ID NO:2). HCE was preincubated at 37° C. for 30 mm in the presence of each of the monoclonal antibodies (5 μg/ml) against different types of integrins. The preincubated cells were transferred onto plates precoated with 100 μM EPDIM (SEQ ID NO:3) or 100 μM NKDIL (SEQ ID NO:2) and then incubated further at 37° C. for 1 hour, followed by the quantitative analysis with hexosaminidase substrate as in Example 1-2.

HCE cells [4] = assay: Inhibition of HCE cell adhesion to βig-h3, fibronectin and laminin at various concentrations of EPDIM; details: EPDIM 0-1,200 μM, FIG. 10b
Description: as §1
HCE cells were incubated in media containing the synthetic peptide EPDIM (SEQ ID NO:3) at concentrations of 0, 200, 400, 600, 800, 1,000 and 1,200 μM and applied to plates coated with βig-h3, fibronectin and laminin. Following incubation for 1 hour, the attached cells were quantitatively analyzed with hexosaminidase as in Example 1-2.

HCE cells [5] = assay: Cell attachment activity of recombinant βig-h3 fas-1 domain proteins coated on plates (hexosaminidase assay); details: HCE cells on plates coated with the recombinant protein, 37° C. 1 hour, FIG. 2
Description: as §1

HCE cells [6] = assay: Cell attachment activity of substitution mutants of the 4th fas-1 domain of βig-h3; details: HCE cells on plates coated with the mutant protein, 37° C. 1 hour, FIG. 6
Description: as §1
Examination was made of the cell attachment activity of the mutated proteins wherein the Pro616, Asp617 and Ile618 of βigh3 D-IV were substituted, in combination, with Ser, Ala and Ser, respectively, that is, βigh3 D-IV-sDI, βigh3 D-IV-Pal, βigh3 D-IV-PDs, and βigh3 D-IV-sas. To this end, HCE cells were incubated at 37° C. for 1 hour in well plates coated with the mutant proteins, followed by subjecting the attached cells to the hexosaminidase substrate as in Example 1-2.

α3β1 integrin, sequence (P26006 33-872 limits assumed): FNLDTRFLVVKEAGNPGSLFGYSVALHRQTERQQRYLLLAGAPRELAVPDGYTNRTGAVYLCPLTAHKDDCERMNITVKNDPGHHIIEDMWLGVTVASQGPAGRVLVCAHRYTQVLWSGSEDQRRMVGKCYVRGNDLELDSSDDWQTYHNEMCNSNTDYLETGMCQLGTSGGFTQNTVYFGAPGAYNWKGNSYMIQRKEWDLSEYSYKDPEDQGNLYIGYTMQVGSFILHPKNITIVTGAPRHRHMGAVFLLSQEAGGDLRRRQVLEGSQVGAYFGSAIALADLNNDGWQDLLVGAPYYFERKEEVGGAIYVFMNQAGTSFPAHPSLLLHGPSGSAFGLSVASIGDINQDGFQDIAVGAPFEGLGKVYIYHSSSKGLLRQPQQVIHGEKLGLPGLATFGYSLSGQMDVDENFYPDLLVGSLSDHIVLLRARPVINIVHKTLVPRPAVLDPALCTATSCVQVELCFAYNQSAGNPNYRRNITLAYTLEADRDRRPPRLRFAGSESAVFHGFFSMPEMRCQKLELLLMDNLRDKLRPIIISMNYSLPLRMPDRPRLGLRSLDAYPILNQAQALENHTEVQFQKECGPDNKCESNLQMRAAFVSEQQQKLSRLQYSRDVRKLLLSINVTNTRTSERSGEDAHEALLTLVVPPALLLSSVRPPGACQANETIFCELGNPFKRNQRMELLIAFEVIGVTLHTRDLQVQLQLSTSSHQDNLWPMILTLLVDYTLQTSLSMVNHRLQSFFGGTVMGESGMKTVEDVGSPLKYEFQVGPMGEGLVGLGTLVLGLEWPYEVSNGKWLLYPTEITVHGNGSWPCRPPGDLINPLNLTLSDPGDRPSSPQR
α3β1 integrin, sequence (P26006 876-1051 limits assumed): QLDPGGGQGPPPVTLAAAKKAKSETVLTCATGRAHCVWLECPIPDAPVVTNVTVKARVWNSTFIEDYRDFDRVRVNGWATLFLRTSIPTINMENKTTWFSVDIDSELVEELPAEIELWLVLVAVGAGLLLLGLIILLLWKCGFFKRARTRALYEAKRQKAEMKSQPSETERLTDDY
α3β1 integrin, sequence (P05556 21-798, further chain): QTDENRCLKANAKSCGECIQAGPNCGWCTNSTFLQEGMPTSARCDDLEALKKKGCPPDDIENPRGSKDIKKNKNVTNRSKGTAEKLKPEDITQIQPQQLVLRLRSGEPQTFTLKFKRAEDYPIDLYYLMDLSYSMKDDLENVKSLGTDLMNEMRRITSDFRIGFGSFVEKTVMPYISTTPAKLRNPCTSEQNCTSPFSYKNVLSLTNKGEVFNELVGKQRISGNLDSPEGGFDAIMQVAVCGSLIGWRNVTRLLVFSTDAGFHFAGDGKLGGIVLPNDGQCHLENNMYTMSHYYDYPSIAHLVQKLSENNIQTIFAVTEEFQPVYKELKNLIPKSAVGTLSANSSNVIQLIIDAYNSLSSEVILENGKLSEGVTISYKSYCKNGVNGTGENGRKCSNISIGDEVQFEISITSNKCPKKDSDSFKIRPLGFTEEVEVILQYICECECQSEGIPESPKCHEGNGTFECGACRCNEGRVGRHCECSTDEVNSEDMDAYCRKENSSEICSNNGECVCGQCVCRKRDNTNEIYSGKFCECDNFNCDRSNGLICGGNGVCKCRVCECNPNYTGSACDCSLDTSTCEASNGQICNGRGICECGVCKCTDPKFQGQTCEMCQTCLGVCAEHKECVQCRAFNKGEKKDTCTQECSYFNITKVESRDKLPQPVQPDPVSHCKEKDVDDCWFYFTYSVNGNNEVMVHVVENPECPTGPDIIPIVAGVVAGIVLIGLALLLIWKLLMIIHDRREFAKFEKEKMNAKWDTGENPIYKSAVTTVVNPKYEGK

## DEMPI [reference compound]
HCE cells [1]
  ability to mediate cell adhesion: not active in cell adhesion
HCE cells [2]
  cell detachment activity: failed to show; also recorded: low cell detachment activity
  inhibition of HCE cell adhesion to βig-h3: did not affect cell adhesion

## NKDIL [synthetic peptide, a.a]
HCE cells [3]
  inhibition of cell adhesion to fibronectin: weakly inhibited
  inhibition of cell adhesion to laminin: efficiently blocked
  inhibition of cell adhesion to type I collagen: did not affect
  inhibition of cell adhesion to type II collagen: did not affect
  inhibition of cell adhesion to vitronectin: did not affect
  inhibition of cell adhesion to βig-h3: efficiently blocked
HCE cells [1]
  ability to mediate cell adhesion: capable of mediating cell adhesion in dose-dependent manners; also recorded: mediate cell adhesion in dose-dependent manners
HCE cells [2]
  cell detachment activity: very excellent cell detachment effect; also recorded: excellent cell detachment activity
  inhibition of HCE cell adhesion to βig-h3: significant suppression of the cell attachment activity; also recorded: significantly blocked
α3β1 integrin
  α3β1 integrin as receptor in peptide-mediated cell adhesion: revealed to act as a receptor

## KADHH [synthetic peptide, a.a]
HCE cells [1]
  ability to mediate cell adhesion: low in activity compared to NKDIL
HCE cells [2]
  cell detachment activity: relatively very low cell detachment effects
  inhibition of HCE cell adhesion to βig-h3: weak suppression of cell adhesion; also recorded: weakly inhibited

## EPDIM [synthetic peptide, a.a]
HCE cells [3]
  inhibition of cell adhesion to fibronectin: weakly inhibited
  inhibition of cell adhesion to laminin: efficiently blocked
  inhibition of cell adhesion to type I collagen: did not affect
  inhibition of cell adhesion to type II collagen: did not affect
  inhibition of cell adhesion to vitronectin: did not affect
  inhibition of cell adhesion to βig-h3: efficiently blocked
HCE cells [1]
  ability to mediate cell adhesion: capable of mediating cell adhesion in dose-dependent manners; also recorded: mediate cell adhesion in dose-dependent manners
HCE cells [2]
  cell detachment activity: very excellent cell detachment effect; also recorded: excellent cell detachment activity
  inhibition of HCE cell adhesion to βig-h3: significant suppression of the cell attachment activity; also recorded: significantly blocked
HCE cells [4]
  inhibitory effect on cell adhesion to fibronectin: dose-dependent
  inhibitory effect on cell adhesion to laminin: dose-dependent
  inhibitory effect on cell adhesion to βig-h3: dose-dependent
α3β1 integrin
  α3β1 integrin as receptor in peptide-mediated cell adhesion: revealed to act as a receptor

B1: βigh3-D-IV: recombinant His-tagged 4th fas-1 domain of human βig-h3, amino acid residues 501 to 632 (protein)
chain: MGTVMDVLKGDNRFSMLVAAIQSAGLTETLNREGVYTVFAPTNEAFRALPPRERSRLLGDAKELANILKYHIGDEILVSGGIGALVRLKSLQGDKLEVSLKNNVVSVNKEPVAEPDIMATNGVVHVITNVLHHHHHH
HCE cells [5]
  cell attachment and spreading activity: comparable to the activity of wild type βig-h3

B2: βigh3 D-IV-Pal: βigh3 D-IV mutant having Ala instead of Asp617 (protein)
chain: MGTVMDVLKGDNRFSMLVAAIQSAGLTETLNREGVYTVFAPTNEAFRALPPRERSRLLGDAKELANILKYHIGDEILVSGGIGALVRLKSLQGDKLEVSLKNNVVSVNKEPVAEPAIMATNGVVHVITNVLHHHHHH
HCE cells [6]
  cell attachment activity: significantly blocked cell adhesion

B3: βigh3 D-IV-PDs: βigh3 D-IV mutant having Ser instead of Ile618 (protein)
chain: MGTVMDVLKGDNRFSMLVAAIQSAGLTETLNREGVYTVFAPTNEAFRALPPRERSRLLGDAKELANILKYHIGDEILVSGGIGALVRLKSLQGDKLEVSLKNNVVSVNKEPVAEPDSMATNGVVHVITNVLHHHHHH
HCE cells [6]
  cell attachment activity: significantly blocked cell adhesion

B4: βigh3 D-IV-sDI: βigh3 D-IV mutant having Ser instead of Pro616 (protein)
chain: MGTVMDVLKGDNRFSMLVAAIQSAGLTETLNREGVYTVFAPTNEAFRALPPRERSRLLGDAKELANILKYHIGDEILVSGGIGALVRLKSLQGDKLEVSLKNNVVSVNKEPVAESDIMATNGVVHVITNVLHHHHHH
HCE cells [6]
  cell attachment activity: comparable to that of the wild type control

B5: βigh3 DIV-sas: βigh3 D-IV mutant in which the three amino acids Pro616, Asp617, Ile618 were mutated to Ser, Ala, Ser (protein)
chain: MGTVMDVLKGDNRFSMLVAAIQSAGLTETLNREGVYTVFAPTNEAFRALPPRERSRLLGDAKELANILKYHIGDEILVSGGIGALVRLKSLQGDKLEVSLKNNVVSVNKEPVAESASMATNGVVHVITNVLHHHHHH
HCE cells [6]
  cell attachment activity: far lower than the control

B6: βigh3-D-I: recombinant His-tagged 1st fas-1 domain of human βig-h3, amino acid residues 133 to 236 (protein)
chain: EGPGSFTIFAPSNEAWASLPAEVLDSLVSNVNIELLNALRYHMVGRRVLTDELKHGMTLTSMYQNSNIQIHHYPNGIVTVNCARLLKADHHATNGVVHLIDKVIHHHHHH
HCE cells [5]
  cell attachment and spreading activity: weak activity

B7: βigh3-D-II: recombinant His-tagged 2nd fas-1 domain of human βig-h3, amino acid residues 242 to 372 (protein)
chain: NIQQIIEIEDTFETLRAAVAASGLNTMLEGNGQYTLLAPTNEAFEKIPSETLNRILGDPEALRDLLNNHILKSAMCAEAIVAGLSVETLEGTTLEVGCSGDMLTINGKAIISNKDILATNGVIHYIDELLIHHHHHH
HCE cells [5]
  cell attachment and spreading activity: comparable to the activity of wild type βig-h3

B8: βigh3-D-III: recombinant His-tagged 3rd fas-1 domain of human βig-h3, amino acid residues 373 to 501 (protein)
chain: PDSAKTLFELAAESDVSTAIDLFRQAGLGNHLSGSERLTLLAPLNSVFKDGTPPIDAHTRNLLRNHIIKDQLASKYLYHGQTLETLGGKKLRVFVYRNSLCIENSCIAAHDKRGRYGTLFTMDRVLTPPHHHHHH
HCE cells [5]
  cell attachment and spreading activity: almost no activity
